{"source": "PubChem BioAssay AID1259407", "about": "(Chemical Carcinogenesis Research Information System (CCRIS), 2018)", "system": "CCRIS mutagenicity, Ames/micronucleus/aberration tests", "test": "CCRIS mutagenicity studies", "key": {"[1]": {"settings": "Test System: AMES SALMONELLA TYPHIMURIUM, Strain/Indicator: TA98, Metabolic Activation: NONE, Method: STANDARD PLATE"}, "[2]": {"settings": "Test System: AMES SALMONELLA TYPHIMURIUM, Strain/Indicator: TA100, Metabolic Activation: NONE, Method: STANDARD PLATE"}, "[3]": {"settings": "Test System: AMES SALMONELLA TYPHIMURIUM, Strain/Indicator: TA98, Metabolic Activation: NONE"}}, "note": "Calls of active or inactive are those of the source. The rule behind the calls is not given here."}
{"molecule": "O=C1C=CC(=O)CC(=O)C1", "values": [{"measurement": "mutagenic call", "setting": "Test System: AMES SALMONELLA TYPHIMURIUM, Strain/Indicator: TA98, Metabolic Activation: HAMSTER, LIVER, S-9, AROCLOR 1254, Method: STANDARD PLATE", "value": "inactive; negative"}, {"measurement": "mutagenic call", "setting": "[1]", "value": "inactive; negative"}, {"measurement": "mutagenic call", "setting": "Test System: AMES SALMONELLA TYPHIMURIUM, Strain/Indicator: TA98, Metabolic Activation: RAT, LIVER, S-9, AROCLOR 1254, Method: STANDARD PLATE", "value": "inactive; negative"}, {"measurement": "mutagenic call", "setting": "Test System: AMES SALMONELLA TYPHIMURIUM, Strain/Indicator: TA100, Metabolic Activation: HAMSTER, LIVER, S-9, AROCLOR 1254, Method: STANDARD PLATE", "value": "inactive; negative"}, {"measurement": "mutagenic call", "setting": "[2]", "value": "inactive; negative"}, {"measurement": "mutagenic call", "setting": "Test System: AMES SALMONELLA TYPHIMURIUM, Strain/Indicator: TA100, Metabolic Activation: RAT, LIVER, S-9, AROCLOR 1254, Method: STANDARD PLATE", "value": "inactive; negative"}, {"measurement": "mutagenic call", "setting": "Test System: AMES SALMONELLA TYPHIMURIUM, Strain/Indicator: TA1535, Metabolic Activation: HAMSTER, LIVER, S-9, AROCLOR 1254, Method: STANDARD PLATE", "value": "inactive; negative"}, {"measurement": "mutagenic call", "setting": "Test System: AMES SALMONELLA TYPHIMURIUM, Strain/Indicator: TA1535, Metabolic Activation: NONE, Method: STANDARD PLATE", "value": "inactive; negative"}, {"measurement": "mutagenic call", "setting": "Test System: AMES SALMONELLA TYPHIMURIUM, Strain/Indicator: TA1535, Metabolic Activation: RAT, LIVER, S-9, AROCLOR 1254, Method: STANDARD PLATE", "value": "inactive; negative"}, {"measurement": "mutagenic call", "setting": "Test System: AMES SALMONELLA TYPHIMURIUM, Strain/Indicator: TA1537, Metabolic Activation: HAMSTER, LIVER, S-9, AROCLOR 1254, Method: STANDARD PLATE", "value": "inactive; negative"}, {"measurement": "mutagenic call", "setting": "Test System: AMES SALMONELLA TYPHIMURIUM, Strain/Indicator: TA1537, Metabolic Activation: NONE, Method: STANDARD PLATE", "value": "inactive; negative"}, {"measurement": "mutagenic call", "setting": "Test System: AMES SALMONELLA TYPHIMURIUM, Strain/Indicator: TA1537, Metabolic Activation: RAT, LIVER, S-9, AROCLOR 1254, Method: STANDARD PLATE", "value": "inactive; negative"}, {"measurement": "mutagenic call", "setting": "Test System: AMES SALMONELLA TYPHIMURIUM, Strain/Indicator: TA1538, Metabolic Activation: HAMSTER, LIVER, S-9, AROCLOR 1254, Method: STANDARD PLATE", "value": "inactive; negative"}, {"measurement": "mutagenic call", "setting": "Test System: AMES SALMONELLA TYPHIMURIUM, Strain/Indicator: TA1538, Metabolic Activation: NONE, Method: STANDARD PLATE", "value": "inactive; negative"}, {"measurement": "mutagenic call", "setting": "Test System: AMES SALMONELLA TYPHIMURIUM, Strain/Indicator: TA1538, Metabolic Activation: RAT, LIVER, S-9, AROCLOR 1254, Method: STANDARD PLATE", "value": "inactive; negative"}, {"measurement": "mutagenic call", "setting": "Test System: MOUSE LYMPHOMA, Strain/Indicator: L5178Y (TK+/TK-), Metabolic Activation: NONE, Method: SUSPENSION/PLATE", "value": "active; positive. reevaluation of results: positive"}, {"measurement": "mutagenic call", "setting": "Test System: MOUSE LYMPHOMA, Strain/Indicator: L5178Y (TK+/TK-), Metabolic Activation: RAT, LIVER, S-9, AROCLOR 1254, Method: SUSPENSION/PLATE", "value": "inactive; negative. reevaluation of results: negative"}]}
{"molecule": "O=[N+]([O-])c1ccc2ccc3c4ccccc4c([N+](=O)[O-])c4ccc1c2c43", "values": [{"measurement": "mutagenic call", "setting": "Test System: AMES SALMONELLA TYPHIMURIUM, Strain/Indicator: TA98(1,8-DNP6), Metabolic Activation: NONE", "value": "active; positive"}, {"measurement": "mutagenic call", "setting": "Test System: AMES SALMONELLA TYPHIMURIUM, Strain/Indicator: TA98(NR), Metabolic Activation: NONE", "value": "active; positive"}, {"measurement": "mutagenic call", "setting": "Test System: AMES SALMONELLA TYPHIMURIUM, Strain/Indicator: TA98(NR), Metabolic Activation: NONE, Method: PREINCUBATION", "value": "active; positive"}, {"measurement": "mutagenic call", "setting": "[3]", "value": "active; positive"}, {"measurement": "mutagenic call", "setting": "Test System: AMES SALMONELLA TYPHIMURIUM, Strain/Indicator: TA98, Metabolic Activation: NONE, Method: PREINCUBATION", "value": "active; positive"}, {"measurement": "mutagenic call", "setting": "[1]", "value": "active; positive"}, {"measurement": "mutagenic call", "setting": "[2]", "value": "active; positive"}]}
{"molecule": "COc1cccc2c1C(=O)c1c(O)c3c(c(O)c1C2=O)CC(O)(C(C)=O)CC3OC1CC(N2CCOCC2C#N)C(O)C(C)O1", "note": "(centres undefined)", "values": [{"measurement": "mutagenic call", "setting": "[3]", "value": "inactive; negative"}, {"measurement": "mutagenic call", "setting": "Test System: AMES SALMONELLA TYPHIMURIUM, Strain/Indicator: TA98, Metabolic Activation: RAT, LIVER, S-9, AROCLOR 1254", "value": "active; positive"}, {"measurement": "mutagenic call", "setting": "Test System: CHINESE HAMSTER V-79, Strain/Indicator: V-79/8-AZAGUANINE, Metabolic Activation: NONE", "value": "active; positive"}, {"measurement": "mutagenic call", "setting": "Test System: CHINESE HAMSTER V-79, Strain/Indicator: V-79/8-AZAGUANINE, Metabolic Activation: RAT, HEPATOCYTES", "value": "inactive; negative"}, {"measurement": "mutagenic call", "setting": "Test System: UDS RAT HEPATOCYTES, Strain/Indicator: THY INCORP, Metabolic Activation: NONE, Method: AUTOMATIC COLONY COUNTER", "value": "active; positive"}]}
